We go through 26 molecules from US20170305943A1, “COMPOUNDS FOR THE TREATMENT OF BACTERIAL INFECTIONS” (priority 2014, published 2017).

Converted amounts (≈) assume the structure as drawn.

The assay has as its system Clostridium difficile (Isolate ID ATCC 9689). As to the kind of experiment: Bacterial Assay: Determination of Antibacterial Activity (MIC, broth microdilution or agar dilution). The format is cell-based. Conditions: Clostridioides difficile, ATCC9689, 48 h, read-out: C. difficile MIC Activity Range. As for the experimental part:
Bacterial Assay: Determination of Antibacterial Activity Compounds of the invention were tested for antimicrobial activity by susceptibility testing in liquid or on solid media. Minimum inhibitory concentrations (MICs) for compounds against each strain were determined by the broth microdilution or agar dilution method according to the guidelines of the Clinical Laboratories and Standards Institute, formerly the National Committee for Clinical Laboratory Standards (Clinical Laboratories and Standards Institute. Methods for Dilution Antimicrobial Susceptibility Tests for Bacteria That Grow Anaerobically; Approved Standard-Seventh Edition. Document M11-A7, CLSI, Wayne, Pa., 2007, Clinical Laboratories and Standards Institute). Briefly MICs were determined by visible inspection after 48 hours of growth in the presence of compounds, cultures were grown at 37° C. in anaerobic gas packs using reinforced clostridial medium supplemented with 0.1% defribrinated horse blood. The bacterial strains tested include C. difficile (Clostridium difficile (Isolate ID ATCC 9689)) (Table 2) and two drug resistant clinical isolates (Clostridium difficile (Isolate ID BI-9) and Clostridium difficile (Isolate ID 027-01) (Table 3).
MICs were determined to be within the activity ranges “A” activity≦1.01 μg/mL; “B” activity>1.0 μg/mL-4.0 μg/mL; “C” activity>4.0 μg/mL-16 μg/mL
(Broth dilution looks for growth in wells or tubes with falling amounts of substance.)
Take `CNCC(=O)OCC(Oc1ccc(F)c(C(N)=O)c1F)c1nc(-c2ccc(C(F)(F)F)cc2)c(Br)o1` (centres unmarked) [Compound 39, 2-{5-bromo-4-[4-(trifluoromethyl)phenyl]-1,3-oxazol-2-yl}-2-(3-carbamoyl-2,4-difluorophenoxy)ethyl N-methylglycinate]: the MIC (commonly the lowest concentration that inhibits growth of the organism) is less than 1.01 µg/mL.
To `NC(=O)c1c(F)ccc(OC(COC(=O)Cn2cccc2)c2nc(-c3ccc(C(F)(F)F)cc3)c(Br)o2)c1F` (stereo not drawn) [Compound 40, 2-{5-bromo-4-[4-(trifluoromethyl)phenyl]-1,3-oxazol-2-yl}-2-(3-carbamoyl-2,4-difluorophenoxy)ethyl 1H-pyrrol-l-ylacetate] belongs less than 1.01 µg/mL.
Turning to `NC(=O)c1c(F)ccc(O[C@@H](CO)c2nc(-c3ccc(C(F)(F)F)cc3)c(Br)o2)c1F` [Compound 41, 3-[(1S)-1-{5-bromo-4-[4-(trifluoromethyl)phenyl]-1,3-oxazol-2-yl}-2-hydroxyethoxy]-2,6-difluorobenzamide], the MIC lay in the range of 1 to 4 µg/mL (≈ 1.97 to 7.89 µM).
On to `NC(=O)c1c(F)ccc(OC(COC(=O)CCCN2C(=O)c3ccccc3C2=O)c2nc(-c3ccc(C(F)(F)F)cc3)c(Br)o2)c1F` (centres unmarked) [Compound 42, 2-{5-bromo-4-[4-(trifluoromethyl)phenyl]-1,3-oxazol-2-yl}-2-(3-carbamoyl-2,4-difluorophenoxy)ethyl 4-(1,3-dioxo-1,3-dihydro-2H-isoindo1-2-yl)butanoate], for which the MIC was less than 1.01 µg/mL.
Then `NC(=O)c1c(F)ccc(OC(COP(=O)(O)O)c2nc(-c3ccc(C(F)(F)F)cc3)c(Br)o2)c1F` (centres unmarked) [Compound 43, 2-{5-bromo-4-[4-(trifluoromethyl)phenyl]-1,3-oxazol-2-yl}-2-(3-carbamoyl-2,4-difluorophenoxy)ethyl dihydrogen phosphate], with 1 to 4 µg/mL; and `CCOC(=O)COCC(Oc1ccc(F)c(C(N)=O)c1F)c1nc(-c2ccc(C(F)(F)F)cc2)c(Br)o1` (centres unmarked) [Compound 44, ethyl [2-{5-bromo-4-[4-(trifluoromethyl)phenyl]-1,3-oxazol-2-yl}-2-(3-carbamoyl-2,4-difluorophenoxy)ethoxy]acetate], with 4 to 16 µg/mL (≈ 6.74 to 27 µM); and `CC(=O)OCCCC(Oc1ccc(F)c(C(N)=O)c1F)c1nc(-c2ccc(C(F)(F)F)cc2)c(Br)o1` (centres unmarked) [Compound 45, 4-{5-bromo-4-[4-(trifluoromethyl)phenyl]-1,3-oxazol-2-yl}-4-(3-carbamoyl-2,4-difluorophenoxy)butyl acetate], with 1 to 4 µg/mL.
With `NC(=O)c1c(F)ccc(OC(CCCO)c2nc(-c3ccc(C(F)(F)F)cc3)c(Br)o2)c1F` (centres unmarked) [Compound 46, 3-(1-{5-bromo-4-[4-(trifluoromethyl)phenyl]-1,3-oxazol-2-yl}-4-hydroxybutoxy)-2,6-difluorobenzamide], the minimal inhibitory concentration (MIC) was 1 to 4 µg/mL (≈ 1.87 to 7.47 µM).
Then `CNC(=O)CCC(Oc1ccc(F)c(C(N)=O)c1F)c1nc(-c2ccc(C(F)(F)F)cc2)c(Br)o1` (centres unmarked) [Compound 48, 3-[1-{5-bromo-4-[4-(trifluoromethyl)phenyl]-1,3-oxazol-2-yl}-4-(methylamino)-4-oxobutoxy]-2,6-difluorobenzamide], with 1 to 4 µg/mL (≈ 1.78 to 7.11 µM); and `CNC(=O)OCC(Oc1ccc(F)c(C(N)=O)c1F)c1nc(-c2ccc(C(F)(F)F)cc2)c(Br)o1` (centres unmarked) [Compound 50, 2-{5-bromo-4-[4-(trifluoromethyl)phenyl]-1,3-oxazol-2-yl}-2-(3-carbamoyl-2,4-difluorophenoxy)ethyl methylcarbamate], with less than 1.01 µg/mL.
To `CC(=O)OCC(Oc1ccc(F)c(C(N)=O)c1F)c1nc(-c2ccc(OC(F)(F)F)cc2)c(Br)o1` (centres unmarked) [Compound 51, 2-{5-bromo-4-[4-(trifluoromethoxy)phenyl]-1,3-oxazol-2-yl}-2-(3-carbamoyl-2,4-difluorophenoxy)ethyl acetate] belongs less than 1.01 µg/mL; to `NC(=O)c1c(F)ccc(OC(CO)c2nc(-c3ccc(OC(F)(F)F)cc3)c(Br)o2)c1F` (centres unmarked) [Compound 52, 3-(1-{5-bromo-4-[4-(trifluoromethoxy)phenyl]-1,3-oxazol-2-yl}-2-hydroxyethoxy)-2,6-difluorobenzamide], less than 1.01 µg/mL.
To `NC(=O)c1c(F)ccc(OC(CCC(O)CO)c2nc(-c3ccc(C(F)(F)F)cc3)c(Br)o2)c1F` (centres unmarked) [Compound 53, 3-[(1-{5-bromo-4-[4-(trifluoromethyl)phenyl]-1,3-oxazol-2-yl}-4,5-dihydroxypentyl)oxy]-2,6-difluorobenzamide] belongs 1 to 4 µg/mL (≈ 1.77 to 7.08 µM).
On to `COC(=O)CCNC(=O)OCC(Oc1ccc(F)c(C(N)=O)c1F)c1nc(-c2ccc(C(F)(F)F)cc2)c(Br)o1` (stereo not drawn) [Compound 54, methyl N-{[2-{5-bromo-4-[4-(trifluoromethyl)phenyl]-1,3-oxazol-2-yl}-2-(3-carbamoyl-2,4-difluorophenoxy)ethoxy]carbonyl}-beta-alaninate], for which the MIC lay in the range of 1 to 4 µg/mL (≈ 1.57 to 6.29 µM).
Then `CC(C)(C)OC(=O)NCCNC(=O)OCC(Oc1ccc(F)c(C(N)=O)c1F)c1nc(-c2ccc(C(F)(F)F)cc2)c(Br)o1` (centres unmarked) [Compound 55, 2-{5-bromo-4-[4-(trifluoromethyl)phenyl]-1,3-oxazol-2-yl}-2-(3-carbamoyl-2,4-difluorophenoxy)ethyl tert-butyl ethane-1,2-diylbiscarbamate], with 1 to 4 µg/mL (≈ 1.44 to 5.77 µM); and `CN(CCNC(=O)OCC(Oc1ccc(F)c(C(N)=O)c1F)c1nc(-c2ccc(C(F)(F)F)cc2)c(Br)o1)C(=O)OC(C)(C)C` (centres unmarked) [Compound 56, tert-butyl [2-({[2-{5-bromo-4-[4-(trifluoromethyl)phenyl]-1,3-oxazol-2-yl}-2-(3-carbamoyl-2,4-difluorophenoxy)ethoxy]carbonyl}amino)ethyl]methyl carbamate (non-preferred name)], with 1 to 4 µg/mL (≈ 1.41 to 5.65 µM).
With `NC(=O)c1c(F)ccc(OC(COC(=O)N2CCOCC2)c2nc(-c3ccc(C(F)(F)F)cc3)c(Br)o2)c1F` (centres unmarked) [Compound 58, 2-{5-bromo-4-[4-(trifluoromethyl)phenyl]-1,3-oxazol-2-yl}-2-(3-carbamoyl-2,4-difluorophenoxy)ethyl morpholine-4-carboxylate], the MIC fell in the range of 4 to 16 µg/mL (≈ 6.45 to 25.8 µM).
Then `NC(=O)c1c(F)ccc(OC(COC(=O)NCCO)c2nc(-c3ccc(C(F)(F)F)cc3)c(Br)o2)c1F` (centres unmarked) [Compound 59, 2-{5-bromo-4-[4-(trifluoromethyl)phenyl]-1,3-oxazol-2-yl}-2-(3-carbamoyl-2,4-difluorophenoxy)ethyl (2-hydroxyethyl)carbamate], with less than 1.01 µg/mL; and `COCCNC(=O)OCC(Oc1ccc(F)c(C(N)=O)c1F)c1nc(-c2ccc(C(F)(F)F)cc2)c(Br)o1` (centres unmarked) [Compound 60, 2-{5-bromo-4-[4-(trifluoromethyl)phenyl]-1,3-oxazol-2-yl}-2-(3-carbamoyl-2,4-difluorophenoxy)ethyl (2-methoxyethyl)carbamate], with less than 1.01 µg/mL.
To `NC(=O)c1c(F)ccc(OC(COC(=O)NCc2ccccn2)c2nc(-c3ccc(C(F)(F)F)cc3)c(Br)o2)c1F` (centres unmarked) [Compound 61, 2-{5-bromo-4-[4-(trifluoromethyl)phenyl]-1,3-oxazol-2-yl}-2-(3-carbamoyl-2,4-difluorophenoxy)ethyl (pyridin-2-ylmethyl)carbamate] belongs 1 to 4 µg/mL (≈ 1.56 to 6.24 µM); to `NC(=O)c1c(F)ccc(OC(COC(=O)NCc2cccnc2)c2nc(-c3ccc(C(F)(F)F)cc3)c(Br)o2)c1F` (centres unmarked) [Compound 62, 2-{5-bromo-4-[4-(trifluoromethyl)phenyl]-1,3-oxazol-2-yl}-2-(3-carbamoyl-2,4-difluorophenoxy)ethyl (pyridin-3-ylmethyl)carbamate], 1 to 4 µg/mL (≈ 1.56 to 6.24 µM).
Turning to `NC(=O)c1c(F)ccc(OC(COC(=O)NCc2ccncc2)c2nc(-c3ccc(C(F)(F)F)cc3)c(Br)o2)c1F` (centres unmarked) [Compound 63, 2-{5-bromo-4-[4-(trifluoromethyl)phenyl]-1,3-oxazol-2-yl}-2-(3-carbamoyl-2,4-difluorophenoxy)ethyl (pyridin-4-ylmethyl)carbamate], the MIC is less than 1.01 µg/mL.
Then `Cc1nnc(CNC(=O)OCC(Oc2ccc(F)c(C(N)=O)c2F)c2nc(-c3ccc(C(F)(F)F)cc3)c(Br)o2)o1` (centres unmarked) [Compound 65, 2-{5-bromo-4-[4-(trifluoromethyl)phenyl]-1,3-oxazol-2-yl}-2-(3-carbamoyl-2,4-difluorophenoxy)ethyl [(5-methyl-1,3,4-oxadiazol-2-yl)methyl]carbamate], with 1 to 4 µg/mL (≈ 1.55 to 6.19 µM).
To `NC(=O)c1c(F)ccc(OC(COC(=O)Nc2ccncc2)c2nc(-c3ccc(C(F)(F)F)cc3)c(Br)o2)c1F` (centres unmarked) [Compound 67, 2-{5-bromo-4-[4-(trifluoromethyl)phenyl]-1,3-oxazol-2-yl}-2-(3-carbamoyl-2,4-difluorophenoxy)ethyl pyridin-4-ylcarbamate] belongs 1 to 4 µg/mL (≈ 1.59 to 6.38 µM).
To `Cc1noc(CNC(=O)OCC(Oc2ccc(F)c(C(N)=O)c2F)c2nc(-c3ccc(C(F)(F)F)cc3)c(Br)o2)n1` (centres unmarked) [Compound 68, 2-{5-bromo-4-[4-(trifluoromethyl)phenyl]-1,3-oxazol-2-yl}-2-(3-carbamoyl-2,4-difluorophenoxy)ethyl [(3-methyl-1,2,4-oxadiazol-5-yl)methyl]carbamate] belongs 1 to 4 µg/mL (≈ 1.55 to 6.19 µM); to `CSc1oc(C(CO)Oc2ccc(F)c(C(N)=O)c2F)nc1-c1ccc(C(F)(F)F)cc1` (centres unmarked) [Compound 69, 2,6-difluoro-3-(2-hydroxy-1-{5-(methylthio)-4-[4-(trifluoromethyl)phenyl]-1,3-oxazol-2-yl}ethoxy)benzamide], less than 1.01 µg/mL.
